According to patent publication US20140275122A1, “Voriconazole Formulations” (Fresenius Kabi USA, LLC, priority 2013, published 2014):

Legend:
[1] = Storage stability of lyophilized voriconazole compositions, total impurities by HPLC after reconstitution; format: physicochemical
Procedure: Lyophilized compositions were formed by dissolving the excipient (SBECD or HPCD) in water and adjusting the pH of the resulting excipient solution. Voriconazole (200 mg) was added to the excipient solution, and the pH of the resulting lyophilization solution was adjusted as necessary. The lyophilization solutions were then filtered and lyophilized to form solid compositions. The lyophilization procedure was adjusted as need for each type of composition; however, the general procedure included reducing the temperature of the lyophilization solutions to −45° C., performing a primary drying at a temperature of from −35 to −15° C. and under a vacuum of from 50-200 milliTorr (mTorr), and performing a secondary drying at a temperature of 40° C. To ensure the lowest initial impurities possible, the solutions for lyophilization were prepared at low temperature, using a nitrogen blanket and purging.
Each composition was sealed in a 5 mL vial with a 13 mm rubber stopper (STELMI 6720GC; American Stelmi Corporation, Princeton, N.J.) and stored at 25° C., 40° C. or 55° C. (all temperatures ±2° C.). After storage for 4 or 8 weeks at 25° C., for 4, 8 or 12 weeks at 40° C., or for 2 or 4 weeks at 55° C., a portion of the vials were reconstituted with 19 mL of water for injection. The reconstituted liquids were analyzed by HPLC to determine the concentrations of voriconazole and of any impurities. For comparison, a portion of each composition was reconstituted at the beginning of the storage time (time=0 weeks) with 19 mL of water for injection, and analyzed by HPLC for voriconazole and impurity concentrations.
Solutions comprising HPCD and voriconazole were prepared as described in Example 1, except that the pH of the solution prior to lyophilization was adjusted to 5.18, 5.5, 6.0, 6.5, or 7.0. The lyophilized compositions were formed and then analyzed for the stability of voriconazole over time at 40° C. or 55° C., as described above with regard to Table 1. Table 2 lists the results of stability analyses of lyophilized compositions containing voriconazole in combination with HPCD, where the compositions had different pH values prior to lyophilization.
(§1) The lyophilized compositions were formed and then analyzed for voriconazole stability over time at 40° C. and 55° C., as described above with regard to Table 1. Table 3 lists the results of stability analyses of lyophilized compositions containing voriconazole in combination with HPCD, where the compositions further included one of the amino acids arginine, aspartic acid or glycine.
as §1, with “3.” for “1.”, “4” for “3”, “lysine, histidine, asparagine, glutamine” for “arginine, aspartic acid”, “threonine.” for “glycine.”
The effects of pH prior to lyophilization were analyzed for the formulations that included lactose. The lyophilized compositions were formed and then analyzed for voriconazole stability over time at 40° C. and 55° C., as described above with regard to Table 3. […]
The pH prior to lyophilization was adjusted to 6.2 with HCl/NaOH. The lyophilized compositions were formed and then analyzed for voriconazole stability over time at 40° C. and 55° C., as described above with regard to Table 3. […]

[2] = aqueous liquid having a pH of 3; cited from earlier work

Total impurities (%) ([1]; lyophilized solid stored at 40 °C, 4 weeks): 0.70%
Total impurities (%) ([1]; lyophilized solid stored at 40 °C, 8 weeks): 0.34%
Total impurities (%) ([1]; lyophilized solid stored at 40 °C, 12 weeks): 0.43%
Total impurities (%) ([1]; lyophilized solid stored at 55 °C, 2 weeks): 0.58%
Total impurities (%) ([1]; lyophilized solid, time 0 weeks (reconstituted at beginning of storage)): 0.18%
SMILES: C[C@@H](c1ncncc1F)[C@](O)(Cn1cncn1)c1ccc(F)cc1F [voriconazole, (2R,3S)-2-(2,4-difluorophenyl)-3-(5-fluoro-4-pyrimidinyl)-1-(1H-1,2,4-triazol-1-yl)-2-butanol]
solubility of voriconazole [2]: 2000 µg/mL
